Data taken from publication PMC5218480 (PLoS ONE, 2017).

Test system: MV-4-11 cells
Assay: Gene expression microarray analysis (Affymetrix PrimeView) and GSEA
Assay type: cell-based, human
Set-up: RFU PODN (11730768_x_at) / Fold change /veh PODN (11730768_x_at) / RFU LINC00158 (11744669_a_at) / Fold change /veh LINC00158 (11744669_a_at) / RFU DUSP10 (11751237_a_at) / Fold change /veh DUSP10 (11751237_a_at) / RFU ID3 (11757404_x_at) / Fold change /veh ID3 (11757404_x_at) / RFU PLEKHG5 (11737974_s_at) / Fold change /veh PLEKHG5 (11737974_s_at) / RFU LRRC4B (11730491_at) / Fold change /veh LRRC4B (11730491_at) / RFU GIMAP4 (11747438_a_at) / Fold change /veh GIMAP4 (11747438_a_at) / RFU KRT8 (11758183_x_at) / Fold change /veh KRT8 (11758183_x_at) / RFU CNN1 (11734310_a_at) / Fold change /veh CNN1 (11734310_a_at) / RFU VPS37D (11726825_at) / Fold change /veh VPS37D (11726825_at) / RFU C10orf10 (11716522_x_at) / Fold change /veh C10orf10 (11716522_x_at) / RFU KIR2DL2 /// KIR2DL4 /// KIR2DL5A /// KIR2DL5B /// KIR2DS1 /// KIR2DS2 /// KIR2DS3 /// KIR2DS4 /// KIR3DL3 /// KIR3DL3 /// KIR3DS1 (11738374_at) / Fold change /veh KIR2DL2 /// KIR2DL4 /// KIR2DL5A /// KIR2DL5B /// KIR2DS1 /// KIR2DS2 /// KIR2DS3 /// KIR2DS4 /// KIR3DL3 /// KIR3DL3 /// KIR3DS1 (11738374_at) / RFU C1QL1 (11718748_at) / Fold change /veh C1QL1 (11718748_at) / RFU TMPRSS4 (11747572_a_at) / Fold change /veh TMPRSS4 (11747572_a_at) / RFU HAMP (11756126_x_at) / Fold change /veh HAMP (11756126_x_at) / RFU RNFT2 (11725882_a_at) / Fold change /veh RNFT2 (11725882_a_at) / RFU NR4A2 (11747474_a_at) / Fold change /veh NR4A2 (11747474_a_at) / RFU ABCC12 (11746883_a_at) / Fold change /veh ABCC12 (11746883_a_at) / RFU TMEM136 (11760407_x_at) / Fold change /veh TMEM136 (11760407_x_at) / RFU CLDN22 /// WWC2 (11732394_at) / Fold change /veh CLDN22 /// WWC2 (11732394_at) / RFU HLA-DPB1 (11760878_x_at) / Fold change /veh HLA-DPB1 (11760878_x_at) / RFU SPINT1 (11716480_a_at) / Fold change /veh SPINT1 (11716480_a_at) / RFU GAP43 (11754022_s_at) / Fold change /veh GAP43 (11754022_s_at) / RFU A4GNT (11735810_at) / Fold change /veh A4GNT (11735810_at) / RFU PRB3 (11715151_x_at) / Fold change /veh PRB3 (11715151_x_at) / RFU TUBB4B (11761932_at) / Fold change /veh TUBB4B (11761932_at) / RFU CAPN14 (11732068_a_at) / Fold change /veh CAPN14 (11732068_a_at) / RFU TMCC2 (11721928_a_at) / Fold change /veh TMCC2 (11721928_a_at) / RFU IRGQ (11745062_a_at) / Fold change /veh IRGQ (11745062_a_at) / RFU FAM174B (11720279_a_at) / Fold change /veh FAM174B (11720279_a_at) / RFU TMPRSS4 (11748680_a_at) / Fold change /veh TMPRSS4 (11748680_a_at) / RFU FAM212B (11763350_a_at) / Fold change /veh FAM212B (11763350_a_at) / RFU PLEKHG5 (11743358_a_at) / Fold change /veh PLEKHG5 (11743358_a_at) / RFU ZSCAN30 (11745921_a_at) / Fold change /veh ZSCAN30 (11745921_a_at) / RFU CMKLR1 (11741424_a_at) / Fold change /veh CMKLR1 (11741424_a_at) / RFU LOC101060620 /// MAPK8IP1 (11723275_at) / Fold change /veh LOC101060620 /// MAPK8IP1 (11723275_at) / RFU SPTSSB (11747773_x_at) / Fold change /veh SPTSSB (11747773_x_at) / RFU PRSS12 (11739890_at) / Fold change /veh PRSS12 (11739890_at) / RFU BIN1 (11741810_x_at) / Fold change /veh BIN1 (11741810_x_at) / RFU WNT11 (11732464_a_at) / Fold change /veh WNT11 (11732464_a_at) / RFU C10orf10 (11716521_a_at) / Fold change /veh C10orf10 (11716521_a_at) / RFU C5orf56 (11738089_at) / Fold change /veh C5orf56 (11738089_at) / RFU CYB561 (11721691_x_at) / Fold change /veh CYB561 (11721691_x_at) / RFU ANKRD19P (11752326_a_at) / Fold change /veh ANKRD19P (11752326_a_at) / RFU OR2T12 /// OR2T33 /// OR2T8 (11738714_s_at) / Fold change /veh OR2T12 /// OR2T33 /// OR2T8 (11738714_s_at) / RFU VCAN (11748164_a_at) / Fold change /veh VCAN (11748164_a_at) / RFU JSRP1 (11732532_at) / Fold change /veh JSRP1 (11732532_at) / RFU KRTAP10-11 (11738290_x_at) / Fold change /veh KRTAP10-11 (11738290_x_at) / RFU MYO3A (11730013_a_at) / Fold change /veh MYO3A (11730013_a_at) / RFU EBF3 (11725865_a_at) / Fold change /veh EBF3 (11725865_a_at) / RFU CAMK2N1 (11719241_x_at) / Fold change /veh CAMK2N1 (11719241_x_at) / RFU C5orf56 (11738088_a_at) / Fold change /veh C5orf56 (11738088_a_at) / RFU OLFML3 (11715873_a_at) / Fold change /veh OLFML3 (11715873_a_at) / RFU LOC100653217 /// NTM (11731650_a_at) / Fold change /veh LOC100653217 /// NTM (11731650_a_at) / RFU MAPK11 (11762145_a_at) / Fold change /veh MAPK11 (11762145_a_at) / RFU FIZ1 (11724087_x_at) / Fold change /veh FIZ1 (11724087_x_at) / RFU OASL (11726364_x_at) / Fold change /veh OASL (11726364_x_at) / RFU SOX15 (11748057_x_at) / Fold change /veh SOX15 (11748057_x_at) / RFU CD79A (11719716_a_at) / Fold change /veh CD79A (11719716_a_at) / RFU HIST1H1D (11736915_at) / Fold change /veh HIST1H1D (11736915_at) / RFU CASKIN2 (11723855_a_at) / Fold change /veh CASKIN2 (11723855_a_at) / RFU LOC730098 (11760151_x_at) / Fold change /veh LOC730098 (11760151_x_at) / RFU OR4N2 (11742367_at) / Fold change /veh OR4N2 (11742367_at) / RFU PRRT2 (11749266_a_at) / Fold change /veh PRRT2 (11749266_a_at) / RFU SNX32 (11753110_a_at) / Fold change /veh SNX32 (11753110_a_at) / RFU CDHR5 (11726645_a_at) / Fold change /veh CDHR5 (11726645_a_at) / RFU RCAN1 (11760418_a_at) / Fold change /veh RCAN1 (11760418_a_at) / RFU FAM167A (11723789_a_at) / Fold change /veh FAM167A (11723789_a_at) / RFU FAM26E (11764081_at) / Fold change /veh FAM26E (11764081_at) / RFU ISYNA1 (11749810_s_at) / Fold change /veh ISYNA1 (11749810_s_at) / RFU ACY1 (11761880_at) / Fold change /veh ACY1 (11761880_at) / RFU 11764098_at / Fold change /veh 11764098_at / RFU SAMD14 (11745864_x_at) / Fold change /veh SAMD14 (11745864_x_at) / RFU NPB (11741838_a_at) / Fold change /veh NPB (11741838_a_at) / RFU TMPRSS6 (11731388_a_at) / Fold change /veh TMPRSS6 (11731388_a_at) / RFU KRTAP10-2 (11738614_at) / Fold change /veh KRTAP10-2 (11738614_at) / RFU ARHGAP8 /// PRR5-ARHGAP8 (11727945_x_at) / Fold change /veh ARHGAP8 /// PRR5-ARHGAP8 (11727945_x_at) / RFU KRTAP5-7 /// NADSYN1 (11734609_at) / Fold change /veh KRTAP5-7 /// NADSYN1 (11734609_at) / RFU RASL12 (11751679_a_at) / Fold change /veh RASL12 (11751679_a_at) / RFU CDKN2B (11736163_a_at) / Fold change /veh CDKN2B (11736163_a_at) / RFU PRF1 (11729649_at) / Fold change /veh PRF1 (11729649_at) / RFU, ZNF638 /// ZNF638-IT1 / Fold change vs veh, ZNF638 /// ZNF638-IT1 / RFU, PANK3 / Fold change vs veh, PANK3 / RFU, SH3YL1 / Fold change vs veh, SH3YL1 / RFU, ZEB2 / Fold change vs veh, ZEB2 / RFU, NRIP1 / Fold change vs veh, NRIP1 / RFU, PTTG1IP / Fold change vs veh, PTTG1IP / RFU, CAPN2 / Fold change vs veh, CAPN2 / RFU, MED14 / Fold change vs veh, MED14 / RFU, SNORA58 / Fold change vs veh, SNORA58 / RFU, C1orf63 / Fold change vs veh, C1orf63 / RFU, LRRFIP1 / Fold change vs veh, LRRFIP1 / RFU, NDUFAF7 / Fold change vs veh, NDUFAF7 / RFU, SLC12A2 / Fold change vs veh, SLC12A2 / RFU, IBTK / Fold change vs veh, IBTK / RFU, ESF1 / Fold change vs veh, ESF1 / Fold change vs veh, TMEM50B / RFU, TAOK1 / Fold change vs veh, TAOK1 / RFU, ACBD3 / Fold change vs veh, ACBD3 / RFU, TMA16 / Fold change vs veh, TMA16 / RFU, RWDD3 / Fold change vs veh, RWDD3 / RFU, BCAT1 / Fold change vs veh, BCAT1 / RFU, EDEM3 / Fold change vs veh, EDEM3 / RFU, TMEM33 / Fold change vs veh, TMEM33 / RFU, WDR75 / Fold change vs veh, WDR75 / RFU, AHCTF1 / Fold change vs veh, AHCTF1 / RFU, TFRC / Fold change vs veh, TFRC / RFU, ZDHHC17 / Fold change vs veh, ZDHHC17 / RFU, NOM1 / Fold change vs veh, NOM1 / RFU, ARL8B / Fold change vs veh, ARL8B / RFU, ZBTB11 / Fold change vs veh, ZBTB11 / RFU, TAMM41 / Fold change vs veh, TAMM41 / RFU, KIAA1704 /// LOC100996395 / Fold change vs veh, KIAA1704 /// LOC100996395 / RFU, ING1 / Fold change vs veh, ING1 / RFU, TRMT61B / Fold change vs veh, TRMT61B / RFU, FUBP3 / Fold change vs veh, FUBP3 / RFU, TP53 / Fold change vs veh, TP53 / RFU, TNKS2 / Fold change vs veh, TNKS2 / RFU, ZFP14 / Fold change vs veh, ZFP14 / RFU, ACTR2 / Fold change vs veh, ACTR2 / RFU, PPP3R1 / Fold change vs veh, PPP3R1 / RFU, PIK3R1 / Fold change vs veh, PIK3R1 / RFU, HNRNPA1 / Fold change vs veh, HNRNPA1 / RFU, RNF170 / Fold change vs veh, RNF170 / RFU, ZNF28 / Fold change vs veh, ZNF28 / RFU, RNGTT / Fold change vs veh, RNGTT / RFU, OGT / Fold change vs veh, OGT / RFU, BRD1 / Fold change vs veh, BRD1 / RFU, MARS / Fold change vs veh, MARS / RFU, ZNF655 / Fold change vs veh, ZNF655 / RFU, FAHD1 / Fold change vs veh, FAHD1 / RFU, BDP1 / Fold change vs veh, BDP1 / RFU, LRRCC1 / Fold change vs veh, LRRCC1 / RFU, ARID1A / Fold change vs veh, ARID1A / RFU, ZNF146 / Fold change vs veh, ZNF146 / RFU, ZNF330 / Fold change vs veh, ZNF330 / RFU, GPN3 / Fold change vs veh, GPN3 / RFU, C9orf123 / Fold change vs veh, C9orf123 / RFU, N4BP2L2 / Fold change vs veh, N4BP2L2 / RFU, ARFIP1 / Fold change vs veh, ARFIP1 / RFU, FAM179B / Fold change vs veh, FAM179B / RFU, BCL10 / Fold change vs veh, BCL10 / RFU, UHRF1BP1L / Fold change vs veh, UHRF1BP1L / RFU, BET1 / Fold change vs veh, BET1 / RFU, CNOT2 / Fold change vs veh, CNOT2 / RFU, ZNF268 / Fold change vs veh, ZNF268 / Fold change vs veh, ZNF507 / RFU, DGCR2 / Fold change vs veh, DGCR2 / RFU, WDSUB1 / Fold change vs veh, WDSUB1 / Fold change vs veh, HSP90B1 /// MIR3652 / RFU, ADSS / Fold change vs veh, ADSS / RFU, GK / Fold change vs veh, GK / RFU, ZNF148 / Fold change vs veh, ZNF148 / RFU, TAF9 / Fold change vs veh, TAF9 / RFU, SLC1A5 / Fold change vs veh, SLC1A5 / RFU, SLMO2 / Fold change vs veh, SLMO2 / RFU, ABCC4 / Fold change vs veh, ABCC4 / RFU, LOC101060439 /// RAP1B / Fold change vs veh, LOC101060439 /// RAP1B / RFU, RFX7 / Fold change vs veh, RFX7 / RFU, GTPBP10 / Fold change vs veh, GTPBP10 / RFU, CNEP1R1 / Fold change vs veh, CNEP1R1 / RFU, BIVM-ERCC5 /// ERCC5 / Fold change vs veh, BIVM-ERCC5 /// ERCC5 / RFU, ILF3 / Fold change vs veh, ILF3 / RFU 11762660_at / Fold change /veh 11762660_at / RFU VCAN (11757783_s_at) / Fold change /veh VCAN (11757783_s_at) / RFU DDX43 (11728927_at) / Fold change /veh DDX43 (11728927_at) / RFU KRT8 (11758188_x_at) / Fold change /veh KRT8 (11758188_x_at) / RFU NKD1 (11759106_at) / Fold change /veh NKD1 (11759106_at) / RFU SRD5A1 (11742802_a_at) / Fold change /veh SRD5A1 (11742802_a_at) / RFU TPSAB1 /// TPSB2 (11721975_s_at) / Fold change /veh TPSAB1 /// TPSB2 (11721975_s_at) / RFU GSTM3 (11746129_a_at) / Fold change /veh GSTM3 (11746129_a_at) / RFU IL23R (11737362_x_at) / Fold change /veh IL23R (11737362_x_at) / RFU TMEM51 (11727254_a_at) / Fold change /veh TMEM51 (11727254_a_at) / RFU PIWIL2 (11732686_x_at) / Fold change /veh PIWIL2 (11732686_x_at) / RFU ORM1 (11744905_x_at) / Fold change /veh ORM1 (11744905_x_at) / RFU CCDC152 (11743942_at) / Fold change /veh CCDC152 (11743942_at) / RFU ECM1 (11717891_a_at) / Fold change /veh ECM1 (11717891_a_at) / RFU IL23R (11748794_a_at) / Fold change /veh IL23R (11748794_a_at) / RFU TNFAIP8L3 (11732012_x_at) / Fold change /veh TNFAIP8L3 (11732012_x_at) / RFU MBOAT4 (11741988_at) / Fold change /veh MBOAT4 (11741988_at) / RFU 11764193_at / Fold change /veh 11764193_at / RFU TMEM53 (11763286_at) / Fold change /veh TMEM53 (11763286_at) / RFU MAGEB2 (11727129_at) / Fold change /veh MAGEB2 (11727129_at) / RFU TMEM200A (11744735_a_at) / Fold change /veh TMEM200A (11744735_a_at) / RFU CCDC152 (11751479_a_at) / Fold change /veh CCDC152 (11751479_a_at) / RFU FAM211A (11726209_a_at) / Fold change /veh FAM211A (11726209_a_at) / RFU RGS16 (11746705_a_at) / Fold change /veh RGS16 (11746705_a_at) / RFU VCAN (11755009_s_at) / Fold change /veh VCAN (11755009_s_at) / RFU RHOB (11743442_s_at) / Fold change /veh RHOB (11743442_s_at) / RFU RGS16 (11720943_a_at) / Fold change /veh RGS16 (11720943_a_at) / RFU RGS16 (11720944_at) / Fold change /veh RGS16 (11720944_at) / RFU, VPS4B / Fold change vs veh, VPS4B / RFU, CREB1 / Fold change vs veh, CREB1 / RFU, DNAJC13 / Fold change vs veh, DNAJC13 / RFU, GNAQ / Fold change vs veh, GNAQ / RFU, CDK5R1 / Fold change vs veh, CDK5R1 / RFU, ZRANB3 / Fold change vs veh, ZRANB3 / RFU, CUL4A / Fold change vs veh, CUL4A / RFU, CCNY / Fold change vs veh, CCNY / RFU, UFL1 / Fold change vs veh, UFL1 / RFU, COG3 / Fold change vs veh, COG3 / RFU, DIAPH2 / Fold change vs veh, DIAPH2 / RFU, SKA2 / Fold change vs veh, SKA2 / RFU, AFF3 / Fold change vs veh, AFF3 / RFU, LMF1 / Fold change vs veh, LMF1 / RFU, IPO11 / Fold change vs veh, IPO11 / RFU, DFFB / Fold change vs veh, DFFB / RFU, FOXP1 / Fold change vs veh, FOXP1 / RFU, CARD8 / Fold change vs veh, CARD8 / RFU, STRN3 / Fold change vs veh, STRN3 / RFU, ADK / Fold change vs veh, ADK / RFU, RASSF2 / Fold change vs veh, RASSF2 / RFU, WIPF1 / Fold change vs veh, WIPF1 / RFU, LARP1B / Fold change vs veh, LARP1B / RFU, RASA1 / Fold change vs veh, RASA1 / RFU, RB1 / Fold change vs veh, RB1 / RFU, PPFIA1 / Fold change vs veh, PPFIA1 / RFU, MAT2A / Fold change vs veh, MAT2A / RFU, CCT5 / Fold change vs veh, CCT5 / RFU, WDR92 / Fold change vs veh, WDR92 / RFU, CUX1 / Fold change vs veh, CUX1 / RFU, TTC7A / Fold change vs veh, TTC7A / RFU, TMEM135 / Fold change vs veh, TMEM135 / RFU, DEPTOR / Fold change vs veh, DEPTOR / RFU, CPM / Fold change vs veh, CPM / RFU, DNAJB6 / Fold change vs veh, DNAJB6 / RFU, CACNA2D3 / Fold change vs veh, CACNA2D3 / RFU, DTX4 / Fold change vs veh, DTX4 / RFU, TFCP2 / Fold change vs veh, TFCP2 / RFU, GMCL1 /// GMCL1P1 / Fold change vs veh, GMCL1 /// GMCL1P1 / RFU, AEBP2 / Fold change vs veh, AEBP2 / RFU, SNHG1 /// SNORD22 /// SNORD25 /// SNORD26 /// SNORD27 /// SNORD28 /// SNORD29 /// SNORD31 / Fold change vs veh, SNHG1 /// SNORD22 /// SNORD25 /// SNORD26 /// SNORD27 /// SNORD28 /// SNORD29 /// SNORD31 / Fold change (Aza/veh), C12orf56 (ProbeSet 11735607_a_at) / Fold change (ACY-1035/veh), C12orf56 (ProbeSet 11735607_a_at) / Fold change (Aza/veh), FGFR1OP (ProbeSet 11751329_s_at) / Fold change (ACY-1035/veh), FGFR1OP (ProbeSet 11751329_s_at) / Fold change (Aza/veh), VPS36 (ProbeSet 11739960_a_at) / Fold change (ACY-1035/veh), VPS36 (ProbeSet 11739960_a_at) / RFU SYPL1 (11715823_x_at) / Fold change /veh SYPL1 (11715823_x_at) / RFU IGFBP7 (11715501_s_at) / Fold change /veh IGFBP7 (11715501_s_at) / RFU REEP3 (11722064_at) / Fold change /veh REEP3 (11722064_at) / RFU IGLL1 (11728026_x_at) / Fold change /veh IGLL1 (11728026_x_at): dose or concentration left out as unconfirmed
Details: MV-4-11 cells, 48 hours

**Q.** Which “Fold change /veh FAM211A (11726209_a_at)” value does the source give for `Nc1ccc(-c2cccs2)cc1NC(=O)c1ccc2c(c1)cc(C1CC1)n2CCN1CCOCC1` [ACY-1035] here?
**A.** The value was 1.04.
